Measured values from US8987195B2 (priority 2012, dated 2015).
Where two headings read alike, the source gives them in different places.

Experiments:
HCV genotype 1b replicon = experiment: HCV replicon assay, genotype 1b replicon EC50; assay type: cell-based, Hepatitis C virus; conditions: Hepatitis C virus, genotype 1b replicon, read-out: EC50 [gt-1b]
In short: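 Stable neomycin phosphotransferase-encoding replicon cell lines, kept under G418 selection beforehand, were plated with a compound dilution series without G418 and incubated 24-48 hours. Replicon RNA was then quantified, or luciferase activity read. EC50 was calculated as percent of DMSO control by four-parameter fit.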

[1] = target: HCV NS3/4A protease genotype 1b (Hepatitis C virus genotype 1b, UniProt P26663); experiment: HCV NS3/4A protease time-resolved fluorescence (TRF) assay, Ki against genotype 1b; assay type: biochemical; conditions: IC50 [gt-1b] (nM), NS3/4A genotype 1b, enzyme 0.2 nM
In short: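 Time-resolved fluorescence readout of NS3/4A cleavage of 25 nM europium-labelled peptide over 2.5 h at room temperature, enzyme levels set for signal/background 10–30 (0.2, 0.4, 0.025 nM for 1b, A156T, 3a). Ki by IC50=Ki(1+[S]/KM).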

Row | Structure (SMILES) | EC50 (HCV genotype 1b replicon) [nM] | IC50 [1] [nM] | EC50 (HCV genotype 1b replicon; K+ salt) [nM] | IC50 ([1]; K+ salt) [nM]
1 | CCCOC(=O)N[C@H]1CCCCC/C=C\[C@@H]2C[C@@]2(C(=O)NS(=O)(=O)C2(C)CC2)NC(=O)[C@@H]2C[C@]3(CCc4c(c(C(F)F)nc5ccccc45)O3)CN2C1=O [Example 325, propyl [(2R,6S,12Z,13aS,14aR,16aS)-5′-(difluoromethyl)-14a-{[(1-methylcyclopropyl)sulfonyl]carbamoyl}-5,16-dioxo-1,1′,2′,5,6,7,8,9,10,11,13a,14,14a,15,16,16a-hexadecahydrospiro[cyclopropa[e]pyrrolo[1,2-a][1,4]diazacyclopentadecine-2,3′-pyrano[2,3-c]quinolin]-6-yl]carbamate] | 3.23 | 0.013 |  | 
2 | Cc1nc2ccccc2c2c1O[C@]1(CC2)C[C@H]2C(=O)N[C@]3(C(=O)NS(=O)(=O)C4(C)CC4)C[C@H]3/C=C\CCCCC[C@H](NC(=O)OC3(C(F)(F)F)CCCC3)C(=O)N2C1 [Example 326, 1-(trifluoromethyl)cyclopentyl [(2R,6S,12Z,13aS,14aR,16aS)-5′-methyl-14a-{[(1-methylcyclopropyl)sulfonyl]carbamoyl}-5,16-dioxo-1,1′,2′,5,6,7,8,9,10,11,13a,14,14a,15,16,16a-hexadecahydrospiro[cyclopropa[e]pyrrolo[1,2-a][1,4]diazacyclopentadecine-2,3′-pyrano[2,3-c]quinolin]-6-yl]carbamate] | 1.11 | 0.023 |  | 
3 | Cc1nc2cc(F)ccc2c2c1O[C@]1(CC2)C[C@H]2C(=O)N[C@]3(C(=O)NS(=O)(=O)C4(C)CC4)C[C@H]3/C=C\CCCCC[C@H](NC(=O)OC3CCCC3)C(=O)N2C1 [Example 327, cyclopentyl [(2R,6S,12Z,13aS,14aR,16aS)-8′-fluoro-5′-methyl-14a-{[(1-methylcyclopropyl)sulfonyl]carbamoyl}-5,16-dioxo-1,1′,2′,5,6,7,8,9,10,11,13a,14,14a,15,16,16a-hexadecahydrospiro[cyclopropa[e]pyrrolo[1,2-a][1,4]diazacyclopentadecine-2,3′-pyrano[2,3-c]quinolin]-6-yl]carbamate] |  |  | 3.61 | 0.026
4 | Cc1nc2cc(F)ccc2c2c1O[C@]1(CC2)C[C@H]2C(=O)N[C@]3(C(=O)NS(=O)(=O)C4(C)CC4)C[C@H]3/C=C\CCCCC[C@H](NC(=O)OC(C)(C)C(F)(F)F)C(=O)N2C1 [Example 328, 1,1,1-trifluoro-2-methylpropan-2-yl [(2R, 6S,12Z,13aS,14aR,16aS)-8′-fluoro-5′-methyl-14a-{[(1-methylcyclopropyl)sulfonyl]carbamoyl}-5,16-dioxo-1,1′,2′,5,6,7,8,9,10,11,13a,14,14a,15,16,16a-hexadecahydrospiro[cyclopropa[e]pyrrolo[1,2-a][1,4]diazacyclopentadecine-2,3′-pyrano[2,3-c]quinolin]-6-yl]carbamate] |  |  | 47 | 0.348
5 | CCOC(=O)N[C@H]1CCCCC/C=C\[C@@H]2C[C@@]2(C(=O)NS(=O)(=O)C2(C)CC2)NC(=O)[C@@H]2C[C@]3(CCc4c(c(C(F)F)nc5ccccc45)O3)CN2C1=O [Example 329, ethyl [(2R,6S,12Z,13aS,14aR,16aS)-5′-(difluoromethyl)-14a-{[(1-methylcyclopropyl)sulfonyl]carbamoyl}-5,16-dioxo-1,1′,2′,5,6,7,8,9,10,11,13a,14,14a,15,16,16a-hexadecahydrospiro[cyclopropa[e]pyrrolo[1,2-a][1,4]diazacyclopentadecine-2,3′-pyrano[2,3-c]quinolin]-6-yl]carbamate] | 12.2 | 0.032 |  | 
6 | CC(C)(C)OC(=O)N[C@H]1CCCCC/C=C\[C@@H]2C[C@@]2(C(=O)NS(=O)(=O)C2(C)CC2)NC(=O)[C@@H]2C[C@]3(CCc4c(c(C(F)F)nc5ccc(Cl)cc45)O3)CN2C1=O [Example 331, tert-butyl [(2R,6S,12Z,13aS,14aR,16aS)-9′-chloro-5′-(difluoromethyl)-14a-{[(1-methylcyclopropyl)sulfonyl]carbamoyl}-5,16-dioxo-1,1′,2′,5,6,7,8,9,10,11,13a,14,14a,15,16,16a-hexadecahydrospiro[cyclopropa[e]pyrrolo[1,2-a][1,4]diazacyclopentadecine-2,3′-pyrano[2,3-c]quinolin]-6-yl]carbamate] | 6.71 | 0.01 |  | 
7 | Cc1nc2ccc(C3CC3)cc2c2c1O[C@]1(CC2)C[C@H]2C(=O)N[C@]3(C(=O)NS(=O)(=O)C4(C)CC4)C[C@H]3/C=C\CCCCC[C@H](NC(=O)OC(C)(C)C)C(=O)N2C1 [Example 332, tert-butyl [(2R,6S,12Z,13aS,14aR,16aS)-9′-cyclopropyl-5′-methyl-14a-{[(1-methylcyclopropyl)sulfonyl]carbamoyl}-5,16-dioxo-1,1′,2′,5,6,7,8,9,10,11,13a,14,14a,15,16,16a-hexadecahydrospiro[cyclopropa[e]pyrrolo[1,2-a][1,4]diazacyclopentadecine-2,3′-pyrano[2,3-c]quinolin]-6-yl]carbamate] | 2.69 | 0.017 |  | 
8 | Cc1nc2ccc(Cl)cc2c2c1O[C@]1(CC2)C[C@H]2C(=O)N[C@]3(C(=O)NS(=O)(=O)C4(C)CC4)C[C@H]3/C=C\CCCCC[C@H](NC(=O)OC(C)(C)C(F)(F)F)C(=O)N2C1 [Example 333, 1,1,1-trifluoro-2-methylpropan-2-yl [(2R,6S,12Z,13aS,14aR,16aS)-9′-chloro-5′-methyl-14a-{[(1-methylcyclopropyl)sulfonyl]carbamoyl}-5,16-dioxo-1,1′,2′,5,6,7,8,9,10,11,13a,14,14a,15,16,16a-hexadecahydrospiro[cyclopropa[e]pyrrolo[1,2-a][1,4]diazacyclopentadecine-2,3′-pyrano[2,3-c]quinolin]-6-yl]carbamate] | 10.3 | 0.01 |  | 
9 | CC(C)(OC(=O)N[C@H]1CCCCC/C=C\[C@@H]2C[C@@]2(C(=O)NS(=O)(=O)C2(C)CC2)NC(=O)[C@@H]2C[C@]3(CCc4c(c(C(F)F)nc5ccc(Cl)cc45)O3)CN2C1=O)C(F)(F)F [Example 334, 1,1,1-trifluoro-2-methylpropan-2-yl [(2R,6S,12Z,13aS,14aR,16aS)-9′-chloro-5′-(difluoromethyl)-14a-{[(1-methylcyclopropyl)sulfonyl]carbamoyl}-5,16-dioxo-1,1′,2′,5,6,7,8,9,10,11,13a,14,14a,15,16,16a-hexadecahydrospiro[cyclopropa[e]pyrrolo[1,2-a][1,4]diazacyclopentadecine-2,3′-pyrano[2,3-c]quinolin]-6-yl]carbamate] | 5.59 | 0.019 |  | 
10 | CCc1nc2ccc(OC)cc2c2c1O[C@]1(CC2)C[C@H]2C(=O)N[C@]3(C(=O)NS(=O)(=O)C4(C)CC4)C[C@H]3/C=C\CCCCC[C@H](NC(=O)OC(C)(C)C(F)(F)F)C(=O)N2C1 [Example 335, 1,1,1-trifluoro-2-methylpropan-2-yl [(2R,6S,12Z,13aS,14aR,16aS)-5′-ethyl-9′-methoxy-14a-{[(1-methylcyclopropyl)sulfonyl]carbamoyl}-5,16-dioxo-1,1′,2′,5,6,7,8,9,10,11,13a,14,14a,15,16,16a-hexadecahydrospiro[cyclopropa[e]pyrrolo[1,2-a][1,4]diazacyclopentadecine-2,3′-pyrano[2,3-c]quinolin]-6-yl]carbamate] | 2.6 | 0.017 |  | 
